Assay results published in ChEMBL document CHEMBL1151387, “Constitutents of Magnolia Grandiflora. III. Toxic principle of the wood” (J Nat Prod, 1982).
The source made the active and inactive calls. No cut-off for these calls is given here.

What was measured:
[1] = Toxicity in ip dosed mouse; assay type: organism-based; details: in vivo
Mus musculus [2] = assay: Effect on behavioral activity in ip dosed mouse assessed as occurrence of mydriasis for 30 mins; assay type: functional, organism-based
Mus musculus [3] = assay: Toxicity in ip dosed mouse assessed as labored breathing and depression at LD50; assay type: organism-based; details: in vivo
Mus musculus [4] = assay: Toxicity in ip dosed mouse assessed as death at LD50; assay type: organism-based; details: in vivo
[5] = Toxicity in iv dosed mouse; assay type: organism-based; details: in vivo

SMILES | LD50 [1] [mg/kg] | Activity (Mus musculus [2]) | Activity (Mus musculus [3]) [min] | Activity (Mus musculus [4]) [min] | LD50 [5] [mg/kg]
COc1ccc2c(c1O)-c1c(O)c(OC)cc3c1[C@H](C2)[N+](C)(C)CC3 [MAGNOFLORINE] | 19.6 | Active | 5 | 15 | –
COc1ccc2c(c1O)-c1c(OC)c(OC)cc3c1[C@H](C2)[N+](C)(C)CC3.[Cl-] | – | – | – | – | 2.2
COc1ccc2c(c1O)-c1c(OC)c(OC)cc3c1[C@H](C2)[N+](C)(C)CC3.[I-] | 10 | – | – | – | –
